Laboratory results reported in patent US20010007866A1, “TREATMENT OF PRURITUS WITH VITAMIN D AND ANALOGS THEREOF” (priority 1995, published 2001).
“And” between values parts separate entries of the source, which are not always exact repeats. Identical values can stand only once.

Assays:
pruritus of sunburn = assay: Topical application to pruritus of sunburn (subject two); assay type: in vivo, human
Description: A corn oil solution of vitamin D3 was prepared by adding 1 gram of vitamin D3 to 20 ml corn oil with mixing for approximately 1 hour followed by brief heating to approximately 45° C. until dissolved. One ml of this solution was mixed with 47 ml corn oil and 2 ml isopropyl myristate to obtain a final concentration of vitamin D3 of 1000 μg/ml.
Subject two developed a sunburn on the back and experienced severe pruritus. […] The pruritus abated completely about one-half hour after these applications.

[1] = system: pruritus caused by poison ivy; assay: Topical application to poison ivy rash, pruritic score on 100 mm visual analog scale (subject one); assay type: in vivo, human
Description: Testing Procedure: Subject one contracted poison ivy rash and tested the various preparations above. Preparations were evaluated by the subject after application to an area of rash approximately 1-10 square centimeters. Comparisons were made of antipruritic effect by marking on a 100 mm visual analog scale consisting of a plain line with the left end labeled “None” and the right end labeled “Maximal”. The subject was instructed to mark the scale at a point which they felt corresponded to the level of itchiness that they were feeling at the treatment site at the appropriate time. The samples were coded so that the subject was not aware of what a given sample was and they were not told if they were expected to have an effect. They carried out the evaluation unaided, applying the samples in any order they chose except where side-by-side comparisons were made as indicated in the tables. From the marked scale the pruritic score was determined as the number of mm from the left side of the scale to the subject's mark. Thus a higher value indicates a high level or pruritus and a low value indicates a low level to no pruritus.
The patient and test procedures were as described in example 3. The results of tests using oil-based formulations are in tables 2a through 2c.
The patient and test procedures were as described in example 3. The results of tests using oil-based formulations are in Table 3.
Serial dilutions of Vita Moist Cream were made from an initial 5 ml quantity of Vita Moist Cream by adding successive 5 ml quantities of the diluent, Care Deeply Cream, to the starting formulation and subsequent 5 ml aliquots of successive dilutions as follows:
After coding with numbers 1-6 as above, the preparations were randomly sorted and again coded […] and tested two at a time in alphabetical order. […] The minimal effective concentration in this formulation appears to be between 1.25 and 2.5 μg/ml.

C=C1CC[C@H](O)C/C1=C/C=C1\CCC[C@]2(C)[C@@H]([C@H](C)CCCC(C)C)CC[C@@H]12 [Vitamin D3, cholecalciferol]
antipruritic effect (in words) (pruritus of sunburn; 1000 μg/ml in corn oil): immediately and completely alleviated | time until the pruritus returned (pruritus of sunburn; after 1000 μg/ml in corn oil): one and one-half | antipruritic effect (in words, no scores recorded) ([1]; 869 μg/ml in Eucerin lotion, compared with Eucerin plus corn oil control): stopped the pruritus instantly and completely | antipruritic effect (in words) ([1]; Keri lotion as vehicle, Table 1b): rapid and complete antipruritic effect | pruritic score (100 mm visual analog scale) ([1]; Keri lotion with added isopropyl myristate, 52 μg/ml, time 0 min): 77 mm | pruritic score (100 mm visual analog scale) ([1]; Keri lotion with added isopropyl myristate, 52 μg/ml, time 1 min): 35 mm | pruritic score (100 mm visual analog scale) ([1]; Keri lotion with added isopropyl myristate, 52 μg/ml, time 5 min): 0 mm | pruritic score (100 mm visual analog scale) ([1]; Keri lotion with added isopropyl myristate, 52 μg/ml, time 10 min): 0 mm | pruritic score (100 mm visual analog scale) ([1]; Keri lotion with added isopropyl myristate, 502 μg/ml, time 0 min): 80 mm | pruritic score (100 mm visual analog scale) ([1]; Keri lotion with added isopropyl myristate, 502 μg/ml, time 1 min): 0 mm | pruritic score (100 mm visual analog scale) ([1]; Keri lotion with added isopropyl myristate, 502 μg/ml, time 5 min): 0 mm | pruritic score (100 mm visual analog scale) ([1]; Keri lotion with added isopropyl myristate, 502 μg/ml, time 10 min): 0 mm | pruritic score (100 mm visual analog scale) ([1]; Keri lotion with added isopropyl myristate, 869 μg/ml, time 0 min): 82 mm | pruritic score (100 mm visual analog scale) ([1]; Keri lotion with added isopropyl myristate, 869 μg/ml, time 1 min): 0 mm | pruritic score (100 mm visual analog scale) ([1]; Keri lotion with added isopropyl myristate, 869 μg/ml, time 5 min): 0 mm | pruritic score (100 mm visual analog scale) ([1]; Keri lotion with added isopropyl myristate, 869 μg/ml, time 10 min): 0 mm | pruritic score (100 mm visual analog scale) ([1]; Keri lotion, 10 μg/ml, no isopropyl myristate, time 0 min, single tests): 78 mm and 80 mm | pruritic score (100 mm visual analog scale) ([1]; Keri lotion, 10 μg/ml, no isopropyl myristate, time 1 min, single tests): 0 mm | pruritic score (100 mm visual analog scale) ([1]; Keri lotion, 10 μg/ml, no isopropyl myristate, time 5 min, single tests): 0 mm | pruritic score (100 mm visual analog scale) ([1]; Keri lotion, 10 μg/ml, no isopropyl myristate, time 10 min, single tests): 0 mm | pruritic score (100 mm visual analog scale) ([1]; Keri lotion, 10 μg/ml, with isopropyl myristate, time 0 min, single tests): 80 mm and 77 mm | pruritic score (100 mm visual analog scale) ([1]; Keri lotion, 10 μg/ml, with isopropyl myristate, time 5 min, single tests): 0 mm | pruritic score (100 mm visual analog scale) ([1]; Keri lotion, 10 μg/ml, with isopropyl myristate, time 10 min, single tests): 0 mm | pruritic score, Mean ([1]; Keri lotion, 10 μg/ml, mean of four tests (with and without isopropyl myristate), time 0 min): 79 mm | pruritic score, Mean ([1]; Keri lotion, 10 μg/ml, mean of four tests (with and without isopropyl myristate), time 1 min): 0 mm | pruritic score, Mean ([1]; Keri lotion, 10 μg/ml, mean of four tests (with and without isopropyl myristate), time 5 min): 0 mm | pruritic score, Mean ([1]; Keri lotion, 10 μg/ml, mean of four tests (with and without isopropyl myristate), time 10 min): 0 mm | pruritic score (100 mm visual analog scale) ([1]; Keri lotion, 521 μg/ml, no isopropyl myristate, time 0 min): 80 mm | pruritic score (100 mm visual analog scale) ([1]; Keri lotion, 521 μg/ml, no isopropyl myristate, time 1 min): 81 mm | pruritic score (100 mm visual analog scale) ([1]; Keri lotion, 521 μg/ml, no isopropyl myristate, time 5 min): 0 mm | pruritic score (100 mm visual analog scale) ([1]; Keri lotion, 521 μg/ml, no isopropyl myristate, time 10 min): 0 mm | antipruritic effect (in words) ([1]; Keri lotion, concentrations from 10 through 869 μg/ml, Table 1c): effective in rapidly and effectively relieving pruritus | antipruritic effect (in words) ([1]; Vita Moist Cream diluted with Care Deeply Cream, 1.25 μg/ml and 0.5 μg/ml): some antipruritic effect but the effect was not complete nor was it rapid and sustained | antipruritic effect (in words) ([1]; Vita Moist Cream diluted with Care Deeply Cream, 2.5 and 5 μg/ml): rapid and complete alleviation of pruritus | antipruritic effect (in words) ([1]; corn oil vehicle, 1000 μg/ml, mean of two tests compared to vehicle control): no detectable antipruritic effect | pruritic score, Mean ([1]; corn oil, 1000 μg/ml, mean of two tests, time 0 min): 81 mm | pruritic score, Mean ([1]; corn oil, 1000 μg/ml, mean of two tests, time 1 min): 81 mm | pruritic score, Mean ([1]; corn oil, 1000 μg/ml, mean of two tests, time 5 min): 70 mm | pruritic score, Mean ([1]; corn oil, 1000 μg/ml, mean of two tests, time 10 min): 59 mm | pruritic score (100 mm visual analog scale) ([1]; corn oil, 1000 μg/ml, time 0 min, tests 1 and 2): 80 mm and 81 mm | pruritic score (100 mm visual analog scale) ([1]; corn oil, 1000 μg/ml, time 1 min, tests 1 and 2): 80 mm and 81 mm | pruritic score (100 mm visual analog scale) ([1]; corn oil, 1000 μg/ml, time 5 min, tests 1 and 2): 81 mm and 58 mm | pruritic score (100 mm visual analog scale) ([1]; corn oil, 1000 μg/ml, time 10 min, tests 1 and 2): 60 mm and 58 mm | lowest concentration found to have an anti-pruritic effect ([1]; non-aqueous vehicle): 521 µg/mL | antipruritic effect (in words) ([1]; petroleum jelly vehicle, 521 μg/ml): an antipruritic effect | pruritic score (100 mm visual analog scale) ([1]; petroleum jelly, 521 μg/ml, time 0 min): 72 mm | pruritic score (100 mm visual analog scale) ([1]; petroleum jelly, 521 μg/ml, time 1 min): 11 mm | pruritic score (100 mm visual analog scale) ([1]; petroleum jelly, 521 μg/ml, time 5 min): 10 mm | pruritic score (100 mm visual analog scale) ([1]; petroleum jelly, 521 μg/ml, time 10 min): 9 mm | effective concentration ([1]; suspension of water and a dispersed phase): 12.5 µg/mL | lowest effective concentration ([1]; water-based emulsion formulation): 2.5 µg/mL
